Assays:
[1] = test system: Autobioluminescent Human Epithelial Kidney cells (HEK-293); assay: Cellular metabolic activity, autobioluminescent kidney cells; type: cell-based; details: FIG. 7A; Hematin:RLS3 1:1,000; 0.5 pM-5 nM RLS3; 14-hour period post-exposure; kidney cell model
Description: (§1) Autobioluminescent Human Epithelial Kidney cells (HEK-293, 490 Biotech) and Human Liver cells (Hep-G2, 490 Biotech) and Human primary astrocytes (490 Biotech) were seeded at 10,000 kidney cells/well, or 50,000 liver cells/well, in 96-well tissue culture treated plates (Falcon) in growth media. The growth media consists of the following: DMEM (Hyclone), 10% heat-inactivated FBS (Gibco), 1% Sodium Pyruvate (HyClone), 1% antibiotic/antimyotic (Hyclone) and 100 μg G418/ml (Gibco). Cells were grown for 2 days prior to treatment with dimenadione derivative compounds. The media was aspirated and cells were washed with 1×PBS (Fisher, SH30256.01) and treated with serial dilutions ranging from 5 fM to 5 μM (1 mL/well) dimenadione derivative compounds. The treated cells were incubated at 37° C. and 5% CO2 for x hours. At each concentration, bioluminescence was measured with either a BMG Labtech clarioSTAR plate reader or an IVIS CCD camera system. Any changes in cell bioluminescence were recorded as photons/per well. […] The relative change in light output was measured between each treatment and the vehicle control at each timepoint. The amount of light being made is proportional to metabolic activity (as measured by FMNH2 availability, which provides the same information as a traditional ATP content assay (i.e., CellTiter Glo). […]

[2] = test system: Human Liver cells (Hep-G2); assay: Cellular metabolic activity, autobioluminescent liver cells; type: cell-based; details: for concentration-dependent effect on cellular metabolism over time: 24 h
Description: Autobioluminescent Human Epithelial Kidney cells (HEK-293, 490 Biotech) and Human Liver cells (Hep-G2, 490 Biotech) and Human primary astrocytes (490 Biotech) were seeded at 10,000 kidney cells/well, or 50,000 liver cells/well, in 96-well tissue culture treated plates (Falcon) in growth media. The growth media consists of the following: DMEM (Hyclone), 10% heat-inactivated FBS (Gibco), 1% Sodium Pyruvate (HyClone), 1% antibiotic/antimyotic (Hyclone) and 100 μg G418/ml (Gibco). Cells were grown for 2 days prior to treatment with dimenadione derivative compounds. […] The treated cells were incubated at 37° C. and 5% CO2 for x hours. At each concentration, bioluminescence was measured with either a BMG Labtech clarioSTAR plate reader or an IVIS CCD camera system. Any changes in cell bioluminescence were recorded as photons/per well. The replicates were averaged, and all conditions were normalized to background light detection (medium-only control wells). The vehicle-only controls were compared to the untreated controls to make sure there was not change in metabolic activity due to the solvent. All other treatments were then compared to the vehicle control. The relative change in light output was measured between each treatment and the vehicle control at each timepoint. The amount of light being made is proportional to metabolic activity (as measured by FMNH2 availability, which provides the same information as a traditional ATP content assay (i.e., CellTiter Glo).
5 fM to 5 μM (10 μL/well) of individual compounds solubilized in DMSO were incubated with cells in 96-well plates. The reference compound was DMSO-only vehicle control, at a final concentration of 0.1% DMSO. Importantly maximally effective concentrations of the compound, in the mid-picomolar to mid-nanomolar range, increased metabolic activity by as much as 2.5-fold. This observation aligns with the core hypothesized mechanism of the compound which has been designed to integrate into the mitochondrial ETC and improve energy production in the form of ATP in mitochondria. Increased energy production is reflected in overall cellular metabolism of the cells.

[3] = test system: primary astrocytes; assay: Cellular metabolic activity, autobioluminescent neuronal (astrocyte) cells; type: cell-based, murine; details: 24 hour period
Description: as §1

[4] = FIG. 8A, complexed with Hematin 1:1,000, 0.5 nM-5 μM, 24-hour period post-exposure, liver cells
[5] = complexed with hematin (FIG. 8A), liver cells
[6] = without hematin complexation (FIG. 8B), 1 pM-10 μM, liver cells

Structure (SMILES)	metabolic activity (bioluminescence) over time [1]	metabolic activity (bioluminescence) over time ([2]; FIG. 7B, Hematin:RLS3 1:1,000, 500 pM-5 μM RLS3, 14 h period post-exposure, liver cell model as printed)	metabolic activity (bioluminescence) over time [2, 4]	concentration-dependent effect on cellular metabolism over time [2, 5]	concentration-dependent effect on cellular metabolism over time [2, 6]	effect on cellular metabolism ([3]; FIG. 9A, 100 pM and 1 nM RLS5 with Hematoporphyrin complexation (1:1000))	effect on cellular metabolism ([3]; FIG. 9B, 100 pM and 1 nM RLS5 without Hematoporphyrin complexation)
COc1cc(C)c(OC)c2ccccc12 [RLS3, 1,4-Dimethoxy-2-Methylnaphthalene]	increase in metabolic activity over time	increase in metabolic activity over time	increase in metabolic activity over time	seemed to show a concentration-dependent effect	did not		
COc1c(C)c(C=O)c(OC)c2ccccc12 [RLS4, 1,4-Dimethoxy-3-Methyl-2-Naphthaldehyde]			increase in metabolic activity over time	seemed to show a concentration-dependent effect	did not		
COc1c(C)c(/C=C/C(=O)/C=C(O)/C=C/c2c(C)c(OC)c3ccccc3c2OC)c(OC)c2ccccc12 [RLS5, (1E,4Z,6E)-1,7-Bis(1,4-Dimethoxy-3-methylnaphthalen-2-yl)-5-Hydroxyhepta-1,4,6-trien-3-one]						slight concentration dependent effect	slight concentration dependent effect

Reference: patent publication US12649709B2, “Naphthoquinone-based chalcone derivatives and uses thereof” (priority 2020, dated 2026)
